Laboratory results from US20250186437A1, “CARBOLINE COMPOUNDS AND USE THEREOF” (PTC Therapeutics, Inc., priority 2021, published 2025).

Tests used:
MOLM-13 cells [1] = assay: MOLM-13 Cell Proliferation Assay (indicator of DHODH inhibition); type: cell-based; settings: Homo sapiens, 72 Hours of culture, CellTiter-Glo, no uridine
Outline: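 Low-passage MOLM-13 cells (10^4/well) in RPMI 1640 + 10% FBS exposed to compound (0.5% DMSO final) for 72 h at 37 °C, 5% CO2. Viability read by CellTiter-Glo luminescence; growth reflects de novo pyrimidine synthesis dependent on DHODH.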

MOLM-13 cells [2] = assay: MOLM-13 Uridine Rescue Assay; type: cell-based; settings: Homo sapiens; MOLM-13 cell proliferation with 100 μM Uridine added, 72 Hours of culture
Outline: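 MOLM-13 cells (passage <20) in RPMI 1640 + 10% FBS at 10^4 cells/well, treated with compound in 0.5% final DMSO for 72 h at 37 °C, 5% CO2. Viability by CellTiter-Glo luminescence. Rescue plates additionally received 100 μM uridine.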

| SMILES | IC50 (MOLM-13 cells [1]) | IC50 (MOLM-13 cells [2]) |
| --- | --- | --- |
| FC(F)(F)c1ccnc(N2CCc3c([nH]c4ccc(Cl)cc34)[C@@H]2c2cnc(N3CCOCC3)nc2)n1 [Compound 408, (1S)-6-chloro-1-[2-(morpholin-4-yl)pyrimidin-5-yl]-2-[4-(trifluoromethyl)pyrimidin-2-yl]-2,3,4,9-tetrahydro-1H-pyrido[3,4-b]indole] | 1.2 nM | 11 µM |
| FC(F)(F)c1cc(C(F)(F)F)nc(N2CCc3c([nH]c4ccc(Cl)cc34)[C@@H]2c2ccc(N3CCOCC3)nc2)n1 [Compound 409, (1S)-2-[4,6-bis(trifluoromethyl)pyrimidin-2-yl]-6-chloro-1-[6-(morpholin-4-yl)pyridin-3-yl]-2,3,4,9-tetrahydro-1H-pyrido[3,4-b]indole] | 0.2 nM | 12.6 µM |
| FC(F)(F)c1cc(C(F)(F)F)nc(N2CCc3c([nH]c4ccc(Cl)cc34)[C@@H]2c2cnc(N3CCOCC3)nc2)n1 [Compound 410, (1S)-2-[4,6-bis(trifluoromethyl)pyrimidin-2-yl]-6-chloro-1-[2-(morpholin-4-yl)pyrimidin-5-yl]-2,3,4,9-tetrahydro-1H-pyrido[3,4-b]indole] | 0.3 nM | 14.2 µM |
| CN1CCN(c2ncc([C@H]3c4[nH]c5ccc(Cl)cc5c4CCN3c3nc(C(F)(F)F)cc(C(F)(F)F)n3)cn2)CC1 [Compound 419, (1S)-2-[4,6-bis(trifluoromethyl)pyrimidin-2-yl]-6-chloro-1-[2-(4-methylpiperazin-1-yl)pyrimidin-5-yl]-2,3,4,9-tetrahydro-1H-pyrido[3,4-b]indole] | 0.5 nM | 5.64 µM |
| CN1CCN(c2ncc([C@H]3c4[nH]c5ccc(Cl)cc5c4CCN3c3nc(C(F)(F)F)nc(C(F)(F)F)n3)cn2)CC1 [Compound 420, (1S)-2-[4,6-bis(trifluoromethyl)-1,3,5-triazin-2-yl]-6-chloro-1-[2-(4-methylpiperazin-1-yl)pyrimidin-5-yl]-2,3,4,9-tetrahydro-1H-pyrido[3,4-b]indole] | 0.4 nM | 3.12 µM |

Next, values leading:

| IC50 (MOLM-13 cells [1]) | IC50 (MOLM-13 cells [2]) | SMILES |
| --- | --- | --- |
| 2 nM | 14.9 µM | Cc1ccc([C@H]2c3[nH]c4ccc(Cl)cc4c3CCN2c2ncnc(C(F)(F)F)n2)cc1 [Compound 418, (1S)-6-chloro-1-(4-methylphenyl)-2-[4-(trifluoromethyl)-1,3,5-triazin-2-yl]-2,3,4,9-tetrahydro-1H-pyrido[3,4-b]indole] |
| 1.3 nM | 1.16 µM | FC(F)(F)c1ncnc(N2CCc3c([nH]c4ccc(Cl)cc34)[C@@H]2c2cnc(N3CCOCC3)nc2)n1 [Compound 460, (1S)-6-chloro-1-[2-(morpholin-4-yl)pyrimidin-5-yl]-2-[4-(trifluoromethyl)-1,3,5-triazin-2-yl]-2,3,4,9-tetrahydro-1H-pyrido[3,4-b]indole] |
| 1.3 nM | 13.6 µM | FC(F)(F)c1ncnc(N2CCc3c([nH]c4ccc(Cl)cc34)[C@@H]2c2ccc(N3CCOCC3)nc2)n1 [Compound 462, (1S)-6-chloro-1-[6-(morpholin-4-yl)pyridin-3-yl]-2-[4-(trifluoromethyl)-1,3,5-triazin-2-yl]-2,3,4,9-tetrahydro-1H-pyrido[3,4-b]indole] |
